ChEMBL document CHEMBL1154295, “Potent and selective steroidal inhibitors of 17beta-hydroxysteroid dehydrogenase type 7, an enzyme that catalyzes the reduction of the key hormones estrone and dihydrotestosterone” (J Med Chem, 2009)

Key:
[1] = target: T1, 3-keto-steroid reductase/17-beta-hydroxysteroid dehydrogenase 7 (Homo sapiens) (UniProt P56937); details: HEK293, at 0.3 µM
T1 sequence (whole entry): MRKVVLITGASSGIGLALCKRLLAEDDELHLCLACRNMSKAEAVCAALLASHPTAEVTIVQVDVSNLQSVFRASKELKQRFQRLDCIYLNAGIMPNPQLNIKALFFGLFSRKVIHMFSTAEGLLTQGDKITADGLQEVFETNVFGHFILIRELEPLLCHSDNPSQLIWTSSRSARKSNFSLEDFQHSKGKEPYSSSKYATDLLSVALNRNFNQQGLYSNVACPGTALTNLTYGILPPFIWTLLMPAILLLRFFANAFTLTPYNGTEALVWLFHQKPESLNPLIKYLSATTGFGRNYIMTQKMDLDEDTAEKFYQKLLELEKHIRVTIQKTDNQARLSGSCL
Description: Inhibition of human 17beta-HSD7 expressed in HEK293 cells assessed as inhibition of reduction of [14C]estrone into [14C]estradiol at 0.3 uM after 7 hrs

[2] = target: T1, 3-keto-steroid reductase/17-beta-hydroxysteroid dehydrogenase 7 (Homo sapiens); details: HEK293, at 3 µM
Description: Inhibition of human 17beta-HSD7 expressed in HEK293 cells assessed as inhibition of reduction of [14C]estrone into [14C]estradiol at 3 uM after 7 hrs

Compound | inhibition [1] [%] | inhibition [2] [%]
CN1C(=O)CC[C@]2(C)[C@H]3CC[C@]4(C)[C@@H](Nc5ccc([N+](=O)[O-])cc5)CC[C@H]4[C@@H]3CC[C@@H]12 | 40.9 | 88
CC(C)C(=O)N(c1ccc([N+](=O)[O-])c(C(F)(F)F)c1)[C@H]1CC[C@H]2[C@@H]3CC[C@H]4N(C)C(=O)CC[C@]4(C)[C@H]3CC[C@]12C | 13.7 | 71.3
CN1C(=O)CC[C@]2(C)[C@H]3CC[C@]4(C)[C@@H](N(C=O)C5CCCCC5)CC[C@H]4[C@@H]3CC[C@@H]12 | 23.9 | 75.2
CN1C(=S)CC[C@]2(C)[C@H]3CC[C@@]4(C)[C@@H](CC[C@@]45CCCC(=O)O5)[C@@H]3CC[C@@H]12 | 11.9 | 12.9
CC1(C)CC[C@@]2(CC[C@H]3[C@@H]4CCc5cc(C(=O)Oc6ccccc6)ccc5[C@H]4CC[C@@]32C)OC1=O | 14 | 28.6
CN1C(=O)C=C[C@]2(C)[C@H]3CC[C@]4(C)[C@@H](N(C(=O)NC5CCCCC5)C5CC5)CC[C@H]4[C@@H]3CC[C@@H]12 | 8.2 | 0.8
CCC1(CC)CC[C@@]2(CC[C@H]3[C@@H]4CCc5cc(O)ccc5[C@H]4CC[C@@]32C)OC1=O | 15.2 | 39.6
CN1C(=O)CC[C@]2(C)[C@H]3CC[C@]4(C)[C@@H](N5CCCC5=O)CC[C@H]4[C@@H]3CC[C@@H]12 | 15.3 | 15.1
CCCCCNC(=O)[C@H]1CC[C@H]2[C@@H]3CC[C@H]4N(C)C(=O)CC[C@]4(C)[C@H]3CC[C@]12C | 52.7 | 96.3
C[C@]12CC[C@@H]3c4ccc(O)cc4CC[C@H]3[C@@H]1CC[C@@]21CCCC(=O)O1 | 0 | 13.8
C[C@@]12C=CC[C@H]1[C@@H]1CCc3cc(O)ccc3[C@H]1CC2 | 7.5 | 5.8
C[C@]12CC[C@H]3C(=CCc4cc(O)ccc43)[C@@H]1CC[C@@H]2O | 12.6 | 8.8
O=c1c(-c2ccc(O)cc2)coc2cc(O)cc(O)c12 | 0 | 0
COc1cc2c(cc1S(N)(=O)=O)CC[C@@H]1[C@@H]2CC[C@]2(C)C(=O)CC[C@@H]12 | 6.4 | 10.3
C[C@]12CC[C@H]3[C@@H](CCC4=CC(=O)CC[C@@]43C)[C@@H]1CC[C@@H]2C(=O)CO | 11.2 | 11.9
C[C@]12CC[C@@H](O)C[C@@H]1CC[C@@H]1[C@@H]2CC[C@]2(C)[C@@H](O)CC[C@@H]12 | 1.1 | 8.4
C[C@]12CCC(=O)C=C1CC[C@@H]1[C@@H]2[C@@H](O)C[C@]2(C=O)[C@@H](C(=O)CO)CC[C@@H]12 | 14.4 | 7.3
CC1(C)CC[C@@]2(CC[C@H]3[C@@H]4CCC5CC(=O)CC[C@]5(C)[C@H]4CC[C@@]32C)OC1=O (stereo not given in full) | 2.2 | 26.4
C[C@]12CC[C@](O)(CCc3ccccc3)C[C@@H]1CC[C@@H]1[C@@H]2CC[C@]2(C)C(=O)CC[C@@H]12 | 0 | 17.4
CCCNC(=O)N(C1CC1)[C@H]1CC[C@H]2[C@@H]3CC[C@H]4N(C)C(=O)C=C[C@]4(C)[C@H]3CC[C@]12C | 7.8 | 8.5

Compound | inhibition [1] [%] | inhibition [2] [%]
CC1=C(c2ccc(OC(=O)C(C)(C)C)cc2)[C@H](c2ccc(OCCN3CCCCC3)cc2)Oc2cc(OC(=O)C(C)(C)C)ccc21 | 0 | 0
CC/C(=C(\c1ccccc1)c1ccc(OCCN(C)C)cc1)c1ccccc1 | 8.9 | 3.2
CC1(C)CC[C@@]2(CC[C@H]3[C@@H]4CCc5cc(C(N)=S)ccc5[C@H]4CC[C@@]32C)OC1=O | 18.5 | 60.9
CC(C)NC(=O)N(C1CC1)[C@H]1CC[C@H]2[C@@H]3CC[C@H]4N(C)C(=O)CC[C@]4(C)[C@H]3CC[C@]12C | 16.5 | 37.3
COc1ccc(N(C(=O)C(C)C)[C@H]2CC[C@H]3[C@@H]4CC[C@H]5N(C)C(=O)CC[C@]5(C)[C@H]4CC[C@]23C)cc1 | 41.1 | 99.8
C[C@]12CC[C@@H]3c4ccccc4CC[C@H]3[C@@H]1CC[C@@]21CCCC(=O)O1 | 6.1 | 4.7
COc1cc2c(cc1S(N)(=O)=O)CC[C@@H]1[C@@H]2CC[C@@]2(C)[C@H]1CCC2(O)Cc1ccc(C(C)(C)C)cc1 (stereo not given in full) | 0 | 6.4
CC1(C)CC[C@@]2(CC[C@H]3[C@@H]4CCc5cc(C(=O)O)ccc5[C@H]4CC[C@@]32C)OC1=O | 28.1 | 20.9
CCOc1ccc2c(c1)CC[C@@H]1[C@@H]2CC[C@@]2(C)[C@H]1CC[C@@]21CCC(C)(C)C(=O)O1 | 20.6 | 29.3
CCCCCN(C(=O)CCCC)[C@H]1CC[C@H]2[C@@H]3CC[C@H]4N(C)C(=O)CC[C@]4(C)[C@H]3CC[C@]12C | 27.3 | 79.7
C[C@]12CC[C@@]3(C[C@H]1CC[C@@H]1[C@@H]2CC[C@]2(C)C(=O)CC[C@@H]12)CN(CC(CN1CCOCC1)OC(=O)CCC1CCCC1)C(=O)O3 (stereo not given in full) | 18.9 | 8.7
C[C@]12CC[C@@H]3c4ccc(S(N)(=O)=O)cc4CC[C@H]3[C@@H]1CCC2=O | 4.2 | 6.1
CC1(C)CC[C@@]2(CC[C@H]3[C@@H]4CCc5cc(O)c(I)cc5[C@H]4CC[C@@]32C)OC1=O | 10 | 24.9
CCS(=O)(=O)Oc1ccc2c(c1)CC[C@@H]1[C@@H]2CC[C@@]2(C)[C@H]1CC[C@@]21CCC(C)(C)C(=O)O1 | 21 | 60.9
COc1cc2c(cc1O)CC[C@@H]1[C@@H]2CC[C@]2(C)C(=O)CC[C@@H]12 | 18.4 | 13.4
COC(=O)c1cc2c(cc1O)CC[C@@H]1[C@@H]2CC[C@@]2(C)[C@H]1CC[C@@]21CCC(C)(C)C(=O)O1 | 21.1 | 30
CN1C(=O)CC[C@]2(C)[C@H]3CC[C@]4(C)[C@@H](NC(=O)C(C)(C)C)CC[C@H]4[C@@H]3CC[C@@H]12 | 13.5 | 55.9
CC(C)C(=O)Nc1ccc([N+](=O)[O-])c(C(F)(F)F)c1 | 18.6 | 10.8
CC(C)NC(=O)N(C1CC1)[C@H]1CC[C@H]2[C@@H]3CC[C@H]4N(C)C(=O)C=C[C@]4(C)[C@H]3CC[C@]12C | 3.6 | 2.5
CC(C)(C)NC(=O)[C@H]1CC[C@H]2[C@@H]3CC[C@H]4NC(=O)C=C[C@]4(C)[C@H]3CC[C@]12C | 3.7 | 5.4

Compound | inhibition [1] [%] | inhibition [2] [%]
C[C@]12CC[C@H](O)CC1=CC[C@@H]1[C@@H]2CC[C@]2(C)C(=O)CC[C@@H]12 | 5.7 | 12.1
C=CC[C@@]1(O)CC[C@H]2[C@@H]3CC[C@H]4N(C)C(=O)CC[C@]4(C)[C@H]3CC[C@@]21C | 13.3 | 4.9
CC1CC(=O)O[C@]2(CC[C@H]3[C@@H]4CCc5cc(O)ccc5[C@H]4CC[C@@]32C)C1 (stereo not given in full) | 14 | 22.9
CCCNC(=O)N(C)[C@H]1CC[C@H]2[C@@H]3CC[C@H]4N(C)C(=O)CC[C@]4(C)[C@H]3CC[C@]12C | 2.7 | 2.2
O=c1oc2cc(O)ccc2c2oc3cc(O)ccc3c12 | 5.5 | 2.3
CCCC1CC[C@@]2(CC[C@H]3[C@@H]4CCc5cc(O)ccc5[C@H]4CC[C@@]32C)OC1=O (stereo not given in full) | 15.8 | 47.1
O=C(c1ccc(OCN2CCCCC2)cc1)c1c(-c2ccc(O)cc2)sc2cc(O)ccc12 | 0 | 0
CC1(C)CC[C@@]2(CC[C@H]3[C@@H]4CCc5cc(O)ccc5[C@H]4CC[C@@]32C)OC1=O | 20.1 | 69.4
COC(=O)c1ccc2c(c1)CC[C@@H]1[C@@H]2CC[C@@]2(C)[C@H]1CC[C@@]21CCC(C)(C)C(=O)O1 | 15.1 | 49
CN(C=O)[C@H]1CC[C@H]2[C@@H]3CC[C@H]4N(C)C(=O)CC[C@]4(C)[C@H]3CC[C@]12C | 14.5 | 15.8
CN1C(=S)CC[C@]2(C)[C@H]3CC[C@@]4(C)[C@@H](CC[C@@]45CCCC(=S)O5)[C@@H]3CC[C@@H]12 | 5.3 | 36.5
C[C@]12CCC(=O)C(O)=C1CC[C@@H]1[C@@H]2CC[C@]2(C)C(=O)CC[C@@H]12 | 8.1 | 7.1
C[C@@]12CCC[C@H]1[C@@H]1CCc3cc(O)ccc3[C@H]1CC2 | 4.5 | 6
C[C@]12CCC(=O)C[C@@H]1CC[C@@H]1[C@@H]2CC[C@@]2(C)[C@H]1CC[C@@]21CCCC(=O)O1 | 18.6 | 30.9
CC1(C)C[C@@]2(CC[C@H]3[C@@H]4CCc5cc(O)ccc5[C@H]4CC[C@@]32C)OC1=O | 14.5 | 42.4
CC1CC[C@@]2(CC[C@H]3[C@@H]4CCc5cc(O)ccc5[C@H]4CC[C@@]32C)OC1=O (stereo not given in full) | 14.4 | 32.1
CCCCCCN(C=O)[C@H]1CC[C@H]2[C@@H]3CC[C@H]4N(C)C(=O)CC[C@]4(C)[C@H]3CC[C@]12C | 94.1 | 100
COCCOc1ccc2c(c1)CC[C@@H]1[C@@H]2CC[C@@]2(C)[C@H]1CC[C@@]21CCC(C)(C)C(=O)O1 | 23.8 | 52.3
CC1=C(c2ccc(O)cc2)[C@H](c2ccc(OCCN3CCCCC3)cc2)Oc2cc(O)ccc21 | 3.1 | 4.2
CN1C(=O)CC[C@]2(C)[C@H]3CC[C@]4(C)[C@@H](N(C=O)C5CC5)CC[C@H]4[C@@H]3CC[C@@H]12 | 17.6 | 41.2
